In US20070042975A1, “Novel indolopyrrolocarbazole derivative with antitumor activity” (priority 2003, published 2007) one finds IC50 data, which are given here for twelve compounds.

SMILES strings stand for the structures.

What is called IC50 is the point on the concentration scale where inhibition reaches its midpoint.

In the first test the test system is MKN-45 (Human Stomach Cancer Cells). Briefly: Cell-growth suppressive effect against MKN-45 cells (WST-8 method). The format is cell-based. The settings on record: 72 h, 3 days incubation with medicament, read-out: 50% Growth Inhibiting Activity (IC50, μM) MKN-45 Cells. The protocol:
(§1) Method for Judging the Pharmaceutical Effect using Cells
(§2) Fetal calf serum (FCS) was purchased from Molgate and a DMEM medium was purchased from Asahi Techno Glass.
(§3) MKN-45, human stomach cancer cell, was purchased from the Immune Biology Laboratory. HCT 116, human colorectal cancer cell, was purchased from the American Type Culture Collection (ATCC).
(§4) Cells were suspended in a DMEM medium to which 10% of FCS were added, and a cell suspension was dispensed to a 96-well plastic plate to an extent of 1000 cells/50 microliters per well. Incubation was carried out at 37° C. for one night in 5% CO2-95% air. Each medicament was subjected to a gradient dilution using dimethyl sulfoxide or an appropriate solvent and each 50 microliters were dispensed to a microplate to which cells were sowed previously. Incubation was carried out for 3 days more at 37° C. in 5% CO2-95% air.
Background: Tetrazolium dyes change colour on reduction, which living cells bring about.
On to `O=C1c2c(c3c4ccc(O)cc4n([C@@H]4O[C@H](CO)[C@@H](O)[C@H](O)[C@H]4O)c3c3[nH]c4cc(O)ccc4c23)C(=O)N1NCc1cc(CO)sc1CO` [Example 4, 6-N-(2,5-dihydroxymethyl-3-thienylmethyl)amino-12,13-dihydro-2,10-dihydroxy-12-β-D-glucopyranosyl-5H-indolo[2,3-a]pyrrolo[3,4-c]carbazole-5,7(6H)-dione], for which the IC50 turned out to be 0.0012 µM.
For the compound `O=C1c2c(c3c4ccc(O)cc4n([C@@H]4O[C@H](CO)[C@@H](O)[C@H](O)[C@H]4O)c3c3[nH]c4cc(O)ccc4c23)C(=O)N1NCc1cnccn1` [Example 5, 6-N-pyrazinylmethylamino-12,13-dihydro-2,10-dihydroxy-12-β-D-glucopyranosyl-5H-indolo-[2,3-a]pyrrolo[3,4-c]carbazole-5,7(6H)-dione], the half-inhibitory concentration (IC50) is 0.0028 µM.
Take `O=C1c2c(c3c4ccc(O)cc4n([C@@H]4O[C@H](CO)[C@@H](O)[C@H](O)[C@H]4O)c3c3[nH]c4cc(O)ccc4c23)C(=O)N1NCc1ccnc2ccccc12` [Example 6, 6-N-(4-quinolinylmethylamino)-12,13-dihydro-2,10-dihydroxy-12-β-D-glucopyranosyl-5H-indolo[2,3-a]pyrrolo[3,4-c]carbazole-5,7(6H)-dione]: the IC50 was 0.0014 µM.
Same read-out and setting: as for `O=C1c2c(c3c4ccc(O)cc4n([C@@H]4O[C@H](CO)[C@@H](O)[C@H](O)[C@H]4O)c3c3[nH]c4cc(O)ccc4c23)C(=O)N1NCc1cc([N+](=O)[O-])c[nH]1` [Example 10, 6-N-(4-nitro-2-1H-pyrrolylmethyl)amino-12,13-dihydro-2,10-dihydroxy-12-β-D-glucopyranosyl-5H-indolo[2,3-a]pyrrolo[3,4-c]carbazole-5,7(6H)-dione], the figure is 0.004 µM.
Still for that read-out and setting: next, `O=C1c2c(c3c4ccc(O)cc4n([C@@H]4O[C@H](CO)[C@@H](O)[C@H](O)[C@H]4O)c3c3[nH]c4cc(O)ccc4c23)C(=O)N1NCc1ccc[nH]1` [Example 12, 6-N-(2-1H-pyrrolylmethyl)amino-12,13-dihydro-2,10-dihydroxy-12-β-D-glucopyranosyl-5H-indolo[2,3-a]pyrrolo[3,4-c]carbazole-5,7(6H)-dione]: 0.002 µM.

A further test relates to HCT-116 (Human Colorectal Cancer Cells). Briefly: Cell-growth suppressive effect against HCT-116 cells (WST-8 method). The format is cell-based. Conditions: 72 h, 3 days incubation with medicament, read-out: 50% Growth Inhibiting Activity (IC50, μM) HCT-116 Cells. The protocol: as §1, §2, §3, §4
For `O=C1c2c(c3c4ccc(O)cc4n([C@@H]4O[C@H](CO)[C@@H](O)[C@H](O)[C@H]4O)c3c3[nH]c4cc(O)ccc4c23)C(=O)N1NCc1cc[nH]n1` [Example 14, 6-N-(3-1H-pyrazolylmethyl)amino-12,13-dihydro-2,10-dihydroxy-12-β-D-glucopyranosyl-5H-indolo[2,3-a]pyrrolo[3,4-c]carbazole-5,7(6H)-dione], the IC50 came out at 0.0012 µM.
On the same count and under the same terms, next, `O=C1c2c(c3c4ccc(O)cc4n([C@@H]4O[C@H](CO)[C@@H](O)[C@H](O)[C@H]4O)c3c3[nH]c4cc(O)ccc4c23)C(=O)N1NCc1c[nH]cn1` [Example 15, 6-N-(4-1H-imidazolylmethyl)amino-12,13-dihydro-2,10-dihydroxy-12-β-D-glucopyranosyl-5H-indolo[2,3-a]pyrrolo[3,4-c]carbazole-5,7(6H)-dione]: 0.0016 µM.
Same read-out and setting: as for `COC(=O)c1cccc(CNN2C(=O)c3c(c4c5ccc(O)cc5n([C@@H]5O[C@H](CO)[C@@H](O)[C@H](O)[C@H]5O)c4c4[nH]c5cc(O)ccc5c34)C2=O)n1` [Example 16, 6-N-(2-methoxycarbonyl-6-pyridylmethyl)amino-12,13-dihydro-2,10-dihydroxy-12-β-D-glucopyranosyl-5H-indolo[2,3-a]pyrrolo[3,4-c]carbazole-5,7(6H)-dione], the figure is 0.0049 µM; as for `O=C1c2c(c3c4ccc(O)cc4n([C@@H]4O[C@H](CO)[C@@H](O)[C@H](O)[C@H]4O)c3c3[nH]c4cc(O)ccc4c23)C(=O)N1OCc1ccncc1` [Example 18, 6-N-(4-pyridylmethoxy)-12,13-dihydro-2,10-dihydroxy-12-β-D-glucopyranosyl-5H-indolo-[2,3-a]pyrrolo[3,4-c]carbazole-5,7(6H)-dione], 0.0023 µM; as for `O=C1c2c(c3c4ccc(O)cc4n([C@@H]4O[C@H](CO)[C@@H](O)[C@H](O)[C@H]4O)c3c3[nH]c4cc(O)ccc4c23)C(=O)N1OCc1cccc(CO)n1` [Example 19, 6-N-(6-hydroxymethyl-2-pyridylmethoxy)-12,13-dihydro-2,10-dihydroxy-12-β-D-glucopyranosyl-5H-indolo[2,3-a]pyrrolo[3,4-c]carbazole-5,7(6H)-dione], 0.0037 µM.
The same measure, in the same setting: as for `O=C1c2c(c3c4ccc(O)cc4n([C@@H]4O[C@H](CO)[C@@H](O)[C@H](O)[C@H]4O)c3c3[nH]c4cc(O)ccc4c23)C(=O)N1OCc1ccncc1CO` [Example 30, 6-N-(3-hydroxymethyl-4-pyridylmethoxy)-12,13-dihydro-2,10-dihydroxy-12-β-D-glucopyranosyl-5H-indolo[2,3-a]pyrrolo[3,4-c]carbazole-5,7(6H)-dione], the figure is 0.00076 µM; as for `O=C1c2c(c3c4ccc(O)cc4n([C@@H]4O[C@H](CO)[C@@H](O)[C@H](O)[C@H]4O)c3c3[nH]c4cc(O)ccc4c23)C(=O)N1CCc1ccncc1` [Example 39, 6-N-(2-(4-pyridyl)ethyl)-12,13-dihydro-2,10-dihydroxy-12-β-D-glucopyranosyl-5H-indolo-[2,3-a]pyrrolo[3,4-c]carbazole-5,7(6H)-dione], 0.005 µM.
